According to patent publication US12383537B2, “(3S)-and (3R)-6,7-bis(hydroxymethyl)-1H,3H-pyrrolo[1,2-c]thiazoles as P53 activators” (UNIVERSIDADE DE COIMBRA, priority 2018, dated 2025):

Tests used:
HCT116 p53+/+ = experiment: sulforhodamine B (SRB) growth inhibition assay; assay type: cell-based, human; conditions: for IC50: HCT116 p53+/+, 48 hours incubation, SRB assay; for p53-dependence of anti-proliferative effect: comparison of IC50 in HCT116 p53+/+ and HCT116 p53−/−
Method: (§1) Cancer cells were plated at 5.0×10^3 cells/well in 96-well plates and incubated for 24 hours. Cells were then exposed to serial dilutions of MANIO, CP-31398 or PRIMA-1MET (from 0.3 to 80 μM). The effect of the compounds was analyzed following 48 hours incubation, using the sulforhodamine B (SRB) assay. The solvent DMSO corresponding to the maximum concentration used in these assays (0.025%) was included as control. Results are the mean±S.E.M. of 3-5 independent experiments.
as §1, with “plated” for “plated at 5.0×10^3 cells/well”, “compound” for “MANIO, CP-31398 or PRIMA-1MET”, “compound” for “compounds”

HCT116 p53−/− = experiment: sulforhodamine B (SRB) growth inhibition assay; assay type: cell-based, human
Method: as §1
as §1, with “plated” for “plated at 5.0×10^3 cells/well”, “compound” for “MANIO, CP-31398 or PRIMA-1MET”, “compound” for “compounds”

H1299 (p53-null) = experiment: sulforhodamine B (SRB) growth inhibition assay; assay type: cell-based; conditions: Homo sapiens, NCI-H1299, H1299, 48 hours incubation
Method: as §1, with “plated” for “plated at 5.0×10^3 cells/well”, “compound” for “MANIO, CP-31398 or PRIMA-1MET”, “compound” for “compounds”

H460 (wtp53) = experiment: sulforhodamine B (SRB) growth inhibition assay; assay type: cell-based; conditions: Homo sapiens, NCI-H460, H460, 48 hours incubation
Method: as §1, with “plated” for “plated at 5.0×10^3 cells/well”, “compound” for “MANIO, CP-31398 or PRIMA-1MET”, “compound” for “compounds”

HT-29 (mutp53 R273H) = experiment: sulforhodamine B (SRB) growth inhibition assay; assay type: cell-based; conditions: Homo sapiens, HT-29, 48 hours incubation
Method: as §1, with “plated” for “plated at 5.0×10^3 cells/well”, “compound” for “MANIO, CP-31398 or PRIMA-1MET”, “compound” for “compounds”

HepG2 (wtp53) = experiment: sulforhodamine B (SRB) growth inhibition assay; assay type: cell-based; conditions: Homo sapiens, HepG2, 48 hours incubation
Method: as §1, with “plated” for “plated at 5.0×10^3 cells/well”, “compound” for “MANIO, CP-31398 or PRIMA-1MET”, “compound” for “compounds”

Huh-7 (mutp53 Y220C) = experiment: sulforhodamine B (SRB) growth inhibition assay; assay type: cell-based; conditions: Homo sapiens, Huh-7, 48 hours incubation
Method: as §1, with “plated” for “plated at 5.0×10^3 cells/well”, “compound” for “MANIO, CP-31398 or PRIMA-1MET”, “compound” for “compounds”

[1] = system: MDA-MB-468 (mut p53 R273H); experiment: sulforhodamine B (SRB) growth inhibition assay; assay type: cell-based; conditions: Homo sapiens, MDA-MB-468, 48 hours incubation
Method: as §1, with “plated” for “plated at 5.0×10^3 cells/well”, “compound” for “MANIO, CP-31398 or PRIMA-1MET”, “compound” for “compounds”

SW837 (mutp53 R248W) = experiment: sulforhodamine B (SRB) growth inhibition assay; assay type: cell-based; conditions: Homo sapiens, SW837, 48 hours incubation
Method: as §1, with “plated” for “plated at 5.0×10^3 cells/well”, “compound” for “MANIO, CP-31398 or PRIMA-1MET”, “compound” for “compounds”

[2] = system: skin cancer cell lines (A375, SCC4925, A375C5 cells); experiment: anti-proliferative effect in skin cancer cell lines; assay type: cell-based; conditions: range over A375, SCC4925, A375C5 cells
[3] = system: MCF7 breast cancer cell lines; conditions: cited from earlier work
[4] = system: wild-type p53-expressing cancer cells (colon HCT116 p53+/+, breast MCF7, and lung H460 cells); experiment: growth inhibition (SRB) in panel of wild-type p53 cancer cell lines; assay type: cell-based; conditions: Homo sapiens, range over HCT116 p53+/+, 48 hours, read-out: IC50 (concentration of compound that causes 50% growth inhibition)
Method: (§2) FIG. 2 illustrates the growth inhibitory effect of MANIO in a panel of human cancer cell lines (HCT116 p53+/+, MCF7, H460, MDA-MB-468, HT-29, SW837, Huh-7, HCT116 p53−/−, H1299, HCC1937). IC50 values were determined by the sulforhodamine B assay after 48 hours treatment with MANIO. Data are mean±SEM (n=4-5).
(§3) The compound (3S)-6,7-bis(hydroxymethyl)-1H,3H-pyrrolo[1,2-c]thiazole, MANIO, inhibited the growth of tumor cells expressing wild-type and mutant p53 forms, with much lower anti-proliferative effect on p53-null cancer cells: The activity of the compound (FIG. 1, with R^1═H, R^2=Ph and R^3=Me) was tested in an array of cancer cell lines with different p53 status.

[5] = system: mutant p53-expressing cancer cells (breast MDA-MB-468, rectum SW837, colon HT29, and hepatocarcinoma Huh-7 cells); experiment: growth inhibition (SRB) in panel of mutant p53 cancer cell lines; assay type: cell-based; conditions: Homo sapiens, range over MDA-MB-468, SW837, HT29, Huh-7, 48 hours, read-out: IC50 (concentration of compound that causes 50% growth inhibition)
Method: as §2, §3

[6] = system: p53-null cancer cells (colon HCT116 p53−/−, breast H1299 and HCC1937 cells); experiment: growth inhibition (SRB) in panel of p53-null cancer cell lines; assay type: cell-based; conditions: Homo sapiens, range over HCT116 p53−/−, 48 hours, read-out: IC50 (concentration of compound that causes 50% growth inhibition)
Method: as §2, §3

[7] = system: HCT116 p53+/+ and HCT116 p53−/− cells; experiment: colony formation assay; assay type: cell-based, human; conditions: 14 days of treatment
Source text: FIG. 4 illustrates the effect of MANIO on HCT116 p53+/+ (A) and HCT116 p53−/− (B) cell colony formation after 14 days of treatment.
MANIO had p53-dependent anti-proliferative effect in colon carcinoma cells: The activity of the compound as wild-type p53 activator was studied in colon carcinoma cells with (HCT116 p53+/+) and without (HCT116 p53−/−) p53 (FIG. 3; Table 1). The IC50 value of MANIO in HCT116 p53+/+ cells was about […] lower than that obtained in HCT116 p53−/− cells, indicating a p53-dependent anti-proliferative effect.

HCT116 cells [8] = experiment: cell cycle analysis by flow cytometry (propidium iodide); assay type: cell-based, human; conditions: 1 μM and 2.5 μM, 48 hours
Method: (§4) FIG. 5 illustrates the effect of 1 μM and 2.5 μM MANIO on cell cycle progression (A) and apoptosis (B) in HCT116 p53+/+ and HCT116 p53−/− cells. (A) Cell cycle phases were analysed by flow cytometry using propidium iodide (PI) and quantified using the FlowJo software, after 48 hours MANIO treatment. […] (B) Apoptosis was analysed by flow cytometry using FITC-Annexin V and PI, after 48 hours or 72 hours MANIO treatment.

HCT116 cells [9] = experiment: apoptosis by flow cytometry (FITC-Annexin V and PI); assay type: cell-based, human; conditions: 1 μM and 2.5 μM, 48 hours or 72 hours
Method: as §4

[10] = system: p53 in HCT116 p53+/+ cells; experiment: Western blot and RT-qPCR of p53 and p53 target genes; assay type: cell-based, human
Method: FIG. 6 illustrates the MANIO effect on protein levels of p53 (A), the mRNA (B) and protein (C) expression levels of p53 target genes and PARP cleavage, in HCT116 p53+/+ and HCT116 p53−/− cells. (B) mRNA levels of p53 target genes in HCT116 cells (MDM2, CDKN1A, GADD45A, BAX, TNFRSF10B, PUMA, NOXA), after 48 hours treatment with MANIO, or DMSO, determined by RT-qPCR. Fold of induction is relative to DMSO. […] Immunoblots represent one of three independent experiments. GAPDH was used as a loading control.

[11] = system: mutant p53 forms ectopically expressed in p53-null H1299 cells; experiment: growth inhibition (SRB) in mutant p53-transfected H1299 cells; assay type: cell-based, human; conditions: R282W, R248W, R280K, R273H, R273C, G245D, R175H, R248Q; 48 hours; versus empty vector
Method: FIG. 7 illustrates the growth inhibitory effect of MANIO in mutant p53-transfected H1299 cells. H1299 cells were transfected with pcDNA3 plasmid expressing different p53 mutants (R282W, R248W, R280K, R273H, R273C, G245D, R175H, R248Q, Y220C, G245S), or with the empty pcDNA3 plasmid, using ScreenFect®A. The growth inhibitory effect was evaluated by sulforhodamine B assay after 48 hours treatment with MANIO.

HCT116 p53+/+ cells [12] = experiment: Comet assay (genotoxicity); assay type: cell-based, human; conditions: MANIO 1 and 2.5 μM; etoposide 50 μM
Source text: Scale bar=20 μm; Magnification=200×.
For that purpose, the Comet assay was used, which measures the ability of genotoxic agents to induce DNA strand breaks in eukaryotic cells.

HCT116 p53+/+ cells [13] = experiment: wound healing assay (cell migration); assay type: cell-based, human; conditions: 0.2 and 0.375 μM
Method: FIG. 9 illustrates the prevention of HCT116p53+/+ cell migration by MANIO. Confluent cells were treated with 0.20 and 0.375 μM MANIO or DMSO, and observed at different time-points in the wound healing assay (scale bar=50 μm and magnification=100×).
MANIO prevented cell migration of human colon cancer cells: The effect of MANIO on the migration ability of HCT116 p53+/+ cells was also studied.

HCT116 p53+/+ tumors = experiment: in vivo xenograft mouse model; parameters: species or system Swiss nude mice; conditions: versus vehicle
Method: FIG. 10 illustrates the in vivo antitumor activity of MANIO. (A) Swiss nude mice were implanted subcutaneous with xenografts of 1.5×10^6 HCT116 p53+/+ cells. The treatment was initiated when palpable tumors were established (˜100 mm3) and consisted in 4 intraperitoneal injections (2 times per week) of vehicle (control) or 100 mg/kg of MANIO (n=5 for each group). […] (B) The tumor weight after MANIO or vehicle (control) treatment was measured; data are mean±SEM (*p<0.05; unpaired Student's t-test). […] This description is of course not in any way restricted to the forms of implementation presented herein and any person with an average knowledge of the area can provide many possibilities for modification thereof without departing from the general idea as defined by the claims. The preferred forms of implementation described above can obviously be combined with each other. The following claims further define the preferred forms of implementation.

[14] = Homo sapiens, HCT-116, 48 hours incubation

For `Cc1c(CO)c(CO)c2n1[C@@H](c1ccccc1)SC2` [(3R)-6,7-Bis (hydroxymethyl)-5-methyl-3-phenyl-1H,3H-pyrrolo[1,2-c]thiazole], the IC50 (HCT116 p53+/+; Homo sapiens, HCT-116) was 5.11 ± 0.42 µM, the “p53-dependence of anti-proliferative effect” value (“p53-dependence” for short) (HCT116 p53+/+) was “relevant p53-dependent anti-proliferative activity” and the IC50 (HCT116 p53−/−; [14]) was 51.8 ± 2.73 µM. For the same molecule, the IC50 (H1299 (p53-null)) was 25.5 ± 2.38 µM, the IC50 (H460 (wtp53)) was 1.8 ± 0.089 µM and the IC50 (HT-29 (mutp53 R273H)) was 5.88 ± 1.28 µM. It also gave an IC50 (HepG2 (wtp53)) of 50.3 ± 1.63 µM, an IC50 (Huh-7 (mutp53 Y220C)) of 6.43 ± 0.32 µM and an IC50 [1] of 0.91 ± 0.0095 µM. For the same molecule, the IC50 (SW837 (mutp53 R248W)) was 7.35 ± 0.89 µM, the IC50 [2] was 25 to 35 µM and the anti-proliferative activity [3] was “potent anti-proliferative activity”.

With `COc1ccc(/C=C/c2nc(NCCCN(C)C)c3ccccc3n2)cc1` [CP-31398, reference compound] the IC50 (HCT116 p53+/+) was 3.4 ± 0.1 µM, the “p53-dependence” value (HCT116 p53+/+) was “lower p53-dependence than the compound” and the IC50 (HCT116 p53−/−; 48 hours incubation) was 7.3 ± 0.6 µM.

With `Cc1c(CO)c(CO)c2n1[C@H](c1ccccc1)SC2` [MANIO, (3S)-6,7-Bis(hydroxymethyl)-5-methyl-3-phenyl-1H,3H-pyrrolo[1,2-c]thiazole] the “IC50 in HCT116 p53+/+ cells lower than in HCT116 p53−/− cells” value (HCT116 p53+/+; HCT116 p53+/+ versus HCT116 p53−/−) was “about 50 fold”, the IC50 (HCT116 p53+/+; Homo sapiens, HCT-116) was 0.96 ± 0.04 µM and the IC50 (HCT116 p53−/−; [14]) was 48.2 ± 1.97 µM. The IC50 [4] was 0.2 to 0.96 µM, the IC50 [5] was 0.2 to 3.2 µM and the IC50 [6] was 28.5 to 48.2 µM. For the same molecule, the IC50 [2] was 25 to 35 µM, the colony-forming ability [7] was “reduce the colony-forming ability of HCT116 in a p53-dependent manner” and the cell cycle progression (HCT116 cells [8]) was “induction of a G2/M-phase cell arrest”. For the same molecule, the apoptosis (HCT116 cells [9]) was “apoptotic cell death”, the “mRNA and proteins encoded by p53 target genes” value ([10]; 1 μM) was “increased” and the p53 protein levels ([10]; 1 μM, 24, 48 and 72 hours) was “increased the p53 protein levels”. The “growth inhibition of cells transfected with p53 mutants” value [11] was “significant growth inhibition”, the “percentage of tail DNA (DNA damage)” value (HCT116 p53+/+ cells [12]) was “did not significantly increase the percentage of tail DNA” and the wound closure (HCT116 p53+/+ cells [13]) was “significantly reduced the wound closure”. The “mice weight during treatment” value (HCT116 p53+/+ tumors; 100 mg/kg intraperitoneal, 2 times per week) was “no significant differences between control and MANIO-treated mice weight”, the “growth of the HCT116 p53+/+ tumors” value (HCT116 p53+/+ tumors; four intraperitoneal administrations of 100 mg/kg) was “significantly inhibited” and the anti-proliferative activity [3] was “potent anti-proliferative activity”.

For `COCC1(CO)C(=O)C2CCN1CC2` (stereo not drawn) [PRIMA-1^MET, reference compound], the IC50 (HCT116 p53+/+) was 19.9 ± 4 µM, the “p53-dependence” value (HCT116 p53+/+) was “lower p53-dependence than the compound” and the IC50 (HCT116 p53−/−; 48 hours incubation) was 13.1 ± 2 µM.
